According to US20250025443A1, “COMPOUNDS AND METHODS FOR TREATING CORONA VIRUSES” (CLEAR CREEK BIO, INC., priority 2021, published 2025):
Like-named read-outs stand apart in the source and are kept apart here.

Molecular target: SARS-CoV-2 Papain-Like Protease (PLpro) (Severe acute respiratory syndrome coronavirus 2 (2019-nCoV) (SARS-CoV-2), UniProt P0DTD1)
Experiment: biochemical
Details: read-out: PLpro IC50
[1] = PLpro enzymatic fluorescence assay, class symbols
[2] = SARS-CoV-2 PLpro enzymatic fluorescence assay

Question: For `Cc1ccc(OC[C@@H]2CCN2C)cc1C(=O)NC1(c2cc(-c3ccc(C(=O)N4CCCC4)s3)cc3ncccc23)CC1` [Compound 767, (S)-2-Methyl-5-((1-methylazetidin-2-yl)methoxy)-N-(1-(7-(5-(pyrrolidine-1-carbonyl)thiophen-2-yl)quinolin-5-yl)cyclopropyl)benzamide], which IC50 [1] is on record?
Answer: > 5000 nM

Question: `CCCN(CCC)c1cc(C2(NC(=O)c3cc(OC[C@@H]4CCN4C)ccc3C)CC2)c2cccnc2c1` [Compound 771, (S)—N-(1-(7-(Dipropylamino)quinolin-5-yl)cyclopropyl)-2-methyl-5-((1-methylazetidin-2-yl)methoxy)benzamide] was tested. Which IC50 [1] did it give?
Answer: < 100 nM

Question: For `COc1cc(C2(NC(=O)c3cc(OC[C@H]4CC5(CC5)CN4C)ccc3C)CC2)c2cccnc2c1` [Compound 774, (R)—N-(1-(7-Methoxyquinolin-5-yl)cyclopropyl)-2-methyl-5-((5-methyl-5-azaspiro[2.4]heptan-6-yl)methoxy)benzamide], which IC50 [1] is on record?
Answer: < 100 nM

Question: How did the IC50 [1] turn out when `COc1cc(C2(NC(=O)c3cc(OC[C@@H]4CC[C@@H]5CN(C(=O)OC(C)(C)C)CCN54)ccc3C)CC2)c2cccnc2c1` [Compound 775] was run?
Answer: < 100 nM

Question: Which IC50 [1] does the source give for `COc1cc(C2(NC(=O)c3cc(O[C@H]4CC[C@@H]5CN(C(=O)OC(C)(C)C)CCN5C4)ccc3C)CC2)c2cccnc2c1` [Compound 776] here?
Answer: < 100 nM

Question: Which IC50 [1] does the source give for `Cc1ccc(OC[C@@H]2CCN2C)cc1C(=O)NC1(c2cc(-c3ccc(C(C)N4CCCC4)s3)cc3ncccc23)CC1` (stereo partly drawn) [Compound 780, 2-Methyl-5-(((S)-1-methylazetidin-2-yl)methoxy)-N-(1-(7-(5-(1-(pyrrolidin-1-yl)ethyl)thiophen-2-yl)quinolin-5-yl)cyclopropyl)benzamide] here?
Answer: < 100 nM

Question: `Cc1ccc(OC[C@@H]2CCN2C)cc1C(=O)NC1(c2cc(N(C)CC(F)(F)F)cc3ncccc23)CC1` [Compound 781, (S)-2-Methyl-N-(1-(7-(methyl(2,2,2-trifluoroethyl)amino)quinolin-5-yl)cyclopropyl)-5-((1-methylazetidin-2-yl)methoxy)benzamide] was tested. Which IC50 [1] did it give?
Answer: < 100 nM

Question: Which IC50 [1] does the source give for `[2H]C([2H])([2H])N1CC[C@H]1COc1ccc(C)c(C(=O)NC2(c3cc(-c4cnc(C)o4)cc4ncccc34)CC2)c1` [Compound 782, (S)-2-Methyl-5-((1-(methyl-d3)azetidin-2-yl)methoxy)-N-(1-(7-(2-methyloxazol-5-yl)quinolin-5-yl)cyclopropyl)benzamide] here?
Answer: < 100 nM

Question: Which IC50 [1] does the source give for `COc1cc(C2(NC(=O)c3cc(O[C@H]4CC[C@@H]5CN(C)CCN5C4)ccc3C)CC2)c2cccnc2c1` [Compound 783] here?
Answer: < 100 nM

Question: `COc1cc(C2(NC(=O)c3cc(OC[C@@H]4CC[C@@H]5CN(C)CCN54)ccc3C)CC2)c2cccnc2c1` [Compound 784] was tested. Which IC50 [1] did it give?
Answer: < 100 nM

Question: Which IC50 [1] does the source give for `C=Cc1cc2c(c(C3(NC(=O)c4cc(OC[C@@H]5CCN5C)ccc4C)CC3)c1)CCCN2` [Compound 785, (S)-2-Methyl-5-((1-methylazetidin-2-yl)methoxy)-N-(1-(7-vinyl-1,2,3,4-tetrahydroquinolin-5-yl)cyclopropyl)benzamide] here?
Answer: < 100 nM

Question: For `Cc1ccc(OC[C@@H]2CCN2C)cc1C(=O)NC1(c2cc(NS(C)(=O)=O)cc3ncccc23)CC1` [Compound 786, (S)-2-Methyl-5-((1-methylazetidin-2-yl)methoxy)-N-(1-(7-(methylsulfonamido)quinolin-5-yl)cyclopropyl)benzamide], which IC50 [2] is on record?
Answer: < 100 nM

Question: With `Cc1ccc(OC[C@@H]2CCN2C)cc1C(=O)NC1(c2cc(OCC(C)(C)C)cc3ncccc23)CC1` [Compound 787, (S)-2-Methyl-5-((1-methylazetidin-2-yl)methoxy)-N-(1-(7-(neopentyloxy)quinolin-5-yl)cyclopropyl)benzamide] as the compound, how does the IC50 [1] read?
Answer: < 100 nM

Question: `[2H]C([2H])([2H])N1CC[C@H]1COc1ccc(C)c(C(=O)NC2(c3cc(C=C)cc4ncccc34)CC2)c1` [Compound 788, (S)-2-Methyl-5-((1-(methyl-d3)azetidin-2-yl)methoxy)-N-(1-(7-vinylquinolin-5-yl)cyclopropyl)benzamide] was tested. Which IC50 [1] did it give?
Answer: < 100 nM

Question: With `COc1cc(C2(NC(=O)c3cc(OC[C@@H]4CC[C@@H]5CNCCN54)ccc3C)CC2)c2cccnc2c1` [Compound 789] as the compound, how does the IC50 [1] read?
Answer: < 100 nM

Question: With `COc1cc(C2(NC(=O)c3cc(O[C@H]4CC[C@@H]5CNCCN5C4)ccc3C)CC2)c2cccnc2c1` [Compound 790] as the compound, how does the IC50 [1] read?
Answer: < 100 nM

Question: How did the IC50 [1] turn out when `COc1cc(C2(NC(=O)c3cc(OC[C@@H]4CCN4C)ccc3F)CC2)c2ccc(C)nc2c1` [Compound 791, (S)-2-Fluoro-N-(1-(7-methoxy-2-methylquinolin-5-yl)cyclopropyl)-5-((1-methylazetidin-2-yl)methoxy)benzamide] was run?
Answer: 100 to 1000 nM

Question: Which IC50 [1] does the source give for `Cc1ccc(OC[C@@H]2CCN2C)cc1C(=O)NC1(c2cc(-c3ccc(CN4CCOCC4)s3)cc3ncccc23)CC1` [Compound 793, (S)-2-Methyl-5-((1-methylazetidin-2-yl)methoxy)-N-(1-(7-(5-(morpholinomethyl)thiophen-2-yl)quinolin-5-yl)cyclopropyl)benzamide] here?
Answer: < 100 nM

Question: `[2H]C1([2H])C([2H])([2H])C1(NC(=O)c1cc(OC[C@@H]2CCN2C)ccc1C)c1cc(OC)cc2ncccc12` [Compound 794, (S)-N-(1-(7-Methoxyquinolin-5-yl)cyclopropyl-2,2,3,3-d4)-2-methyl-5-((1-methylazetidin-2-yl)methoxy)benzamide] was tested. Which IC50 [1] did it give?
Answer: < 100 nM

Question: `Cc1ccc(OC[C@@H]2CCN2C)cc1C(=O)NC1(c2cc(OCC(F)(F)F)cc3ncccc23)CC1` [Compound 795, (S)-2-Methyl-5-((1-methylazetidin-2-yl)methoxy)-N-(1-(7-(2,2,2-trifluoroethoxy)quinolin-5-yl)cyclopropyl)benzamide] was tested. Which IC50 [1] did it give?
Answer: < 100 nM

Question: How did the IC50 [1] turn out when `C=Cc1cc2c(c(C3(NC(=O)c4cc(OC[C@@H]5CCN5C)ccc4C)CC3)c1)CCCN2C` [Compound 796, (S)-2-Methyl-N-(1-(1-methyl-7-vinyl-1,2,3,4-tetrahydroquinolin-5-yl)cyclopropyl)-5-((1-methylazetidin-2-yl)methoxy)benzamide] was run?
Answer: < 100 nM

Question: Which IC50 [1] does the source give for `[2H]C([2H])(Oc1ccc(C)c(C(=O)NC2(c3cc(OC)cc4ncccc34)CC2)c1)[C@@H]1CCN1C` [Compound 797, (S)-N-(1-(7-Methoxyquinolin-5-yl)cyclopropyl)-2-methyl-5-((1-methylazetidin-2-yl)methoxy-d2)benzamide] here?
Answer: < 100 nM

Question: With `COc1cc(C2(NC(=O)c3cc(OCC4Cc5ccccc5CN4C)ccc3C)CC2)c2cccnc2c1` (stereo not shown) [Compound 799, N-(1-(7-Methoxyquinolin-5-yl)cyclopropyl)-2-methyl-5-((2-methyl-1,2,3,4-tetrahydroisoquinolin-3-yl)methoxy)benzamide] as the compound, how does the IC50 [1] read?
Answer: < 100 nM

Question: Which IC50 [2] does the source give for `C=Cc1cc(C2(NC(=O)c3cc(OC[C@@H]4CCN4C)c(F)cc3C)CC2)c2cccnc2c1` [Compound 800, (S)-4-Fluoro-2-methyl-5-((1-methylazetidin-2-yl)methoxy)-N-(1-(7-vinylquinolin-5-yl)cyclopropyl)benzamide] here?
Answer: < 100 nM

Question: With `COc1cc(C2(NC(=O)c3cc(OCC4c5ccccc5CCN4C)ccc3C)CC2)c2cccnc2c1` (stereo not shown) [Compound 801, N-(1-(7-Methoxyquinolin-5-yl)cyclopropyl)-2-methyl-5-((2-methyl-1,2,3,4-tetrahydroisoquinolin-1-yl)methoxy)benzamide] as the compound, how does the IC50 [1] read?
Answer: < 100 nM

Question: For `Cc1cc(C2(NC(=O)c3cc(OC[C@@H]4CCN4C)ccc3C)CC2)c2ccc(C)nc2c1` [Compound 802, (S)-N-(1-(2,7-Dimethylquinolin-5-yl)cyclopropyl)-2-methyl-5-((1-methylazetidin-2-yl)methoxy)benzamide], which IC50 [1] is on record?
Answer: < 100 nM

Question: Which IC50 [1] does the source give for `Cc1ccc(OC[C@@H]2CCN2C)cc1C(=O)NC1(c2cc(C#CC(F)(F)F)cc3ncccc23)CC1` [Compound 803, (S)-2-Methyl-5-((1-methylazetidin-2-yl)methoxy)-N-(1-(7-(3,3,3-trifluoroprop-1-yn-1-yl)quinolin-5-yl)cyclopropyl)benzamide] here?
Answer: < 100 nM

Question: `[2H]C1([2H])C([2H])([2H])C1(NC(=O)c1cc(OC[C@@H]2CCN2C)ccc1C)c1cc(OC)cc2nc(C)ccc12` [Compound 804, (S)—N-(1-(7-Methoxy-2-methylquinolin-5-yl)cyclopropyl-2,2,3,3-d)-2-methyl-5-((1-methylazetidin-2-yl)methoxy)benzamide] was tested. Which IC50 [1] did it give?
Answer: < 100 nM

Question: With `Cc1ccc(OC[C@@H]2CCN2C)cc1C(=O)NC1(c2cc(-c3ccc(CN4CCC(F)(F)C4)s3)cc3ncccc23)CC1` [Compound 805, (S)—N-(1-(7-(5-((3,3-Difluoropyrrolidin-1-yl)methyl)thiophen-2-yl)quinolin-5-yl)cyclopropyl)-2-methyl-5-((1-methylazetidin-2-yl)methoxy)benzamide] as the compound, how does the IC50 [1] read?
Answer: < 100 nM

Question: How did the IC50 [1] turn out when `CC(=O)c1ncc(-c2cc(C3(NC(=O)c4cc(OC[C@@H]5CCN5C)ccc4C)CC3)c3cccnc3c2)o1` [Compound 806, (S)-N-(1-(7-(2-Acetyloxazol-5-yl)quinolin-5-yl)cyclopropyl)-2-methyl-5-((1-methylazetidin-2-yl)methoxy)benzamide] was run?
Answer: < 100 nM

Question: With `Cc1ccc(-c2cc(C3(NC(=O)c4cc(OC[C@@H]5CCN5C)ccc4C)COC3)c3cccnc3c2)o1` [Compound 808] as the compound, how does the IC50 [1] read?
Answer: < 100 nM

Question: `Cc1ccc2c(C3(NC(=O)c4cc(OC[C@@H]5CCN5C)ccc4C)CC3)cc(O)cc2n1` [Compound 809, (S)-N-(1-(7-Hydroxy-2-methylquinolin-5-yl)cyclopropyl)-2-methyl-5-((1-methylazetidin-2-yl)methoxy)benzamide] was tested. Which IC50 [1] did it give?
Answer: < 100 nM

Question: Which IC50 [1] does the source give for `Cc1ccc2c(C3(NC(=O)c4cc(OC[C@@H]5CCN5C)ccc4C)CC3)cc(N3CC(C(F)(F)F)C3)cc2n1` [Compound 810, (S)-2-Methyl-N-(1-(2-methyl-7-(3-(trifluoromethyl)azetidin-1-yl)quinolin-5-yl)cyclopropyl)-5-((1-methylazetidin-2-yl)methoxy)benzamide] here?
Answer: < 100 nM

Question: With `COC1CN(c2cc(C3(NC(=O)c4cc(OC[C@@H]5CCN5C)ccc4C)CC3)c3ccc(C)nc3c2)C1` [Compound 811, (S)—N-(1-(7-(3-Methoxyazetidin-1-yl)-2-methylquinolin-5-yl)cyclopropyl)-2-methyl-5-((1-methylazetidin-2-yl)methoxy)benzamide] as the compound, how does the IC50 [1] read?
Answer: < 100 nM
